What was measured:
Format in all cases: physicochemical
[1] = pKa of unformulated amine lipid by TNS fluorescence; settings: read-out: pKa
Summary of the method: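 Unformulated amine lipid was diluted from ethanol stock to approx. 100 μM in 0.1 M sodium phosphate buffers spanning pH 4.5–9.0 with TNS. Fluorescence read at ex 321/em 448 nm; normalized data fitted sigmoidally to give pKa.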

[2] = LNP average particle size and polydispersity by dynamic light scattering; settings: LNP with 50% ionizable lipid, 38% cholesterol, 9% DSPC, 3% C13 Ether (LNP #1, Compound 53: 3% PEG2K-DMG instead); sgRNA:mRNA 1:2
Summary of the method: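 Z-average (intensity-based) and number-mean diameters plus PDI measured by DLS on LNP samples diluted in PBS. LNPs carried sgRNA and Cas9 mRNA at 1:2 w/w, with lipids at 50% ionizable lipid, 38% cholesterol, 9% DSPC and 3% PEG lipid (PEG2K-DMG, C13 Ether or C14 Ether).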

[3] = LNP encapsulation efficiency of RNA (Ribogreen fluorescence assay); settings: LNP with 50% ionizable lipid, 38% cholesterol, 9% DSPC, 3% C13 Ether (LNP #1, Compound 53: 3% PEG2K-DMG instead); sgRNA:mRNA 1:2
Summary of the method: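 RiboGreen fluorescence (ex 488/em 525 nm) measured total RNA in 1×TE with 0.2% Triton X-100 and free RNA in 1×TE alone, against standard curves of the starting RNA; encapsulation = (total − free)/total. Total RNA alternatively quantified after Triton disruption by RP-IP HPLC, UV 260 nm.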

Compound	pKa [1]	Number mean (average particle size) [2] [nm]	PDI (polydispersity index) [2]	Z-avg (average particle size) [2] [nm]	% E (encapsulation efficiency) [3] [%]
CCCCCCCCC(CCCCCCCC)OC(=O)CCCCCCC(=O)OCC(CC)(COC(=O)CCCCCCC(=O)OC(CCCCCCCC)CCCCCCCC)COC(=O)OCCCN1CCCC1 [Compound 67, O′1,O1-(2-ethyl-2-((((3-(pyrrolidin-1-yl)propoxy)carbonyl)oxy)methyl)propane-1,3-diyl) 8,8′-di(heptadecan-9-yl) di(octanedioate)]	6.2	53	0.03	65	99
CCCCCCCCC(CCCCCCCC)OC(=O)CCCCC(=O)OCC(COC(=O)CCCCC(=O)OC(CCCCCCCC)CCCCCCCC)COC(=O)NCCN(CC)CC [Compound 68, O,O′-(2-((((2-(diethylamino)ethyl)carbamoyl)oxy)methyl)propane-1,3-diyl) di(heptadecan-9-yl) diadipate]	6.4	63	0.01	75	99

Reference: patent publication US20260337153A1, “IONIZABLE AMINE LIPIDS” (Intellia Therapeutics, Inc., priority 2023, published 2026)
